One series addresses purified PARP protein (Homo sapiens, UniProt P09874). Description: PARP enzyme inhibition assay. The conditions noted are these: [32P]NAD+ incorporation, 500 μM NAD+, 25° C.; two values in a cell = tested twice; read-out: Inhibition Constant Ki. It counts as biochemical.
For another series, the system named is A549 cells. Description: Cytotoxicity potentiation assay (topotecan). In kind it is cell-based. The conditions noted are these: test compound at 0.4 μM, ratio of IC50 of topotecan alone to IC50 of topotecan with test compound.

pKi: −log10 of the molar value.

purified PARP protein, sequence (P09874 whole entry): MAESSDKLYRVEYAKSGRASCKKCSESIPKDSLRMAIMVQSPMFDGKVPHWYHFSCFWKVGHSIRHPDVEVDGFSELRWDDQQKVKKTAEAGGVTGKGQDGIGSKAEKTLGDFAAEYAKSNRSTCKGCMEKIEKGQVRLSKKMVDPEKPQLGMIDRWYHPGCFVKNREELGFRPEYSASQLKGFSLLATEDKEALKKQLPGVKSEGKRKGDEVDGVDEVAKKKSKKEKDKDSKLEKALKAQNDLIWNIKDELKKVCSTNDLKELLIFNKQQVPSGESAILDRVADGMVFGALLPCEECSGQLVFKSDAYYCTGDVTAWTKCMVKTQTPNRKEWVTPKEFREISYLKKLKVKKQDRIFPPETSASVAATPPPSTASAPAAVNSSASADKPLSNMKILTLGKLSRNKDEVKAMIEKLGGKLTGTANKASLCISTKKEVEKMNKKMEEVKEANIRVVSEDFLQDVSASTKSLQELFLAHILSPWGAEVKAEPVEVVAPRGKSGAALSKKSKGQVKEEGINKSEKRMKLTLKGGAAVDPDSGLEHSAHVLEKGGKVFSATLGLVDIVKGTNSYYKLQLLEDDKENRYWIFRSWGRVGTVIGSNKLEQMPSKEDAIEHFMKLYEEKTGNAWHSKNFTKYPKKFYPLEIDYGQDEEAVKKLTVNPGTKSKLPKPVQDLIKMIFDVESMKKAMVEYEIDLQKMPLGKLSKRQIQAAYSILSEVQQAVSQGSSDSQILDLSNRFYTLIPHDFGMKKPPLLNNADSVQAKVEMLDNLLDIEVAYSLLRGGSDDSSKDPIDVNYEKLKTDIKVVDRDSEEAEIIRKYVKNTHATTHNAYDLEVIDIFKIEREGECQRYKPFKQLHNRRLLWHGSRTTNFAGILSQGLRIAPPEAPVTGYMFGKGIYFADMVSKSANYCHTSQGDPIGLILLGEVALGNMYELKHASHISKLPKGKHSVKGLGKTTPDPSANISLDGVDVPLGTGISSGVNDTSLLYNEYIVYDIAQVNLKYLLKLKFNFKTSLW

The molecule `CN(C)Cc1ccc(-c2[nH]c3cccc4c3c2CCNC4=O)cc1F` [Compound PPP, 2-(4-Dimethylaminomethyl-3-fluoro-phenyl)-1,3,4,5-tetrahydro-azepino[5,4,3-cd]indol-6-one] yielded a melting point of 221.5 to 222.5 °C. Also, the pKi on purified PARP protein is 8.03. The “Cytotoxicity Potentiation PF50” value in the series with A549 cells stood at 2.1.

Molecule `CNCc1cccc(-c2[nH]c3cccc4c3c2CCNC4=O)c1` [Compound PP, 2-(3-(N-Methylamino)methylphenyl)-3,4,5,6-tetrahydro-1H-azepino[5,4,3-cd]indol-6-one] displayed a melting point of 190 to 192 °C. In addition, the pKi on purified PARP protein is 8.28. In addition, the “Cytotoxicity Potentiation PF50” value with A549 cells is listed as 2.3.

On to `O=C1NCCc2c(-c3cccc(CO)c3)[nH]c3cccc1c23` [Compound 16, 2-(3-Hydroxymethylphenyl)-3,4,5,6-tetrahydro-1H-azepino[5,4,3-cd]indol-6-one], for which the melting point was 258 to 259 °C (dec.). In addition, at purified PARP protein, the pKi was 8.30. In the series with A549 cells, the “Cytotoxicity Potentiation PF50” value came to 1.9.

What is called pKi is the negative decadic logarithm of the Ki, by convention in mol/L. The term melting point denotes the temperature of the solid-liquid transition.

For the origin of these results see patent US7429578B2, “Tricyclic inhibitors of poly(ADP-ribose) polymerases” (Agouron Pharmaceuticals, Inc., priority 1999, dated 2008).
